Assays:
Format in all cases: biochemical
[1] = target: T1, S. cerevisiae poly(A) polymerase (Saccharomyces cerevisiae, UniProt P29468); assay: Modified nucleotide incorporation by S. cerevisiae poly(A) polymerase, denaturing gel electrophoresis; conditions: 37° C., 60 minutes; for incorporation by S. cerevisiae poly(A) polymerase: 2.5 mM modified nucleotide, 0.5 mM Mn^2+, 900 units enzyme
T1 construct: purchased Thermo 74225Z25KU
Protocol: FIGS. 4A and 4B. […] All 2′-modified ribonucleotides were at a final concentration of 2.5 mM and incubated at 37° C. for 60 minutes. The control reaction consisted of all reaction components except nucleotide. […] The negative reaction consisted of all reaction components except nucleotide.
The efficiency of S. cerevisiae poly(A) polymerase (Thermo 74225Z25KU) for incorporating of several 2′-modified was evaluated. The modified nucleotides evaluated included the following: 2′-F-rATP (Trilink N-1007), 2′-Azido-rATP (Trilink N-1045), 2′-Amino-rATP (Trilink N-1046), and 2′-O-Methyl rATP (Trilink N-1015). Extension reactions were supplemented with the appropriate buffers, which included 0.5 mM Mn^2+, 200 pmol of the initiator RNA oligonucleotide, 2.5 mM modified nucleotide, and 900 units of enzyme. Reactions were incubated at 37° C. for 60 minutes before being analyzed with denaturing gel electrophoresis. According to the gel (FIG. 4A), under these reactions conditions S. cerevisiae poly(A) polymerase incorporates all 2′-modified nucleotides (2′-Amino-, 2′-O-Methyl-, 2′-F-, and 2′-Azido-rATP). […] Under the same reaction conditions, the reversible terminator nucleoside triphosphate, 2′-O-allyl-rATP, was tested for controlled incorporation by S. cerevisiae poly(A) polymerase.

[2] = target: T2, S. pombe poly(U) polymerase (Schizosaccharomyces pombe, UniProt O13833); assay: Controlled (n+1) extension with reversible terminator nucleotides by S. pombe poly(U) polymerase; conditions: 37° C.
T2 sequence (O13833 1-405): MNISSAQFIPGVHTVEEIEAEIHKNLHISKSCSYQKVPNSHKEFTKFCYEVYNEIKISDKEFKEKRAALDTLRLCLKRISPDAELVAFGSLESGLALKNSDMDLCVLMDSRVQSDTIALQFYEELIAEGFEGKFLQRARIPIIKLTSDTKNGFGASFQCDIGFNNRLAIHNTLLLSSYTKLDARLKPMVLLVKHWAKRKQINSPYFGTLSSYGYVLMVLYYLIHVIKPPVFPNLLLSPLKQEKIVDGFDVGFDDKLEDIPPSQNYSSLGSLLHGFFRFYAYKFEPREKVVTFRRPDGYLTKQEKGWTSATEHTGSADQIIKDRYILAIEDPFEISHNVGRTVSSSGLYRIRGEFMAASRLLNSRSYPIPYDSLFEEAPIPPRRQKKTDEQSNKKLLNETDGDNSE

[3] = target: T3, N-terminus His^6-tagged S. pombe poly(U) polymerase (Schizosaccharomyces pombe, UniProt O13833); assay: Activity of expressed N-terminus His6-tagged S. pombe poly(U) polymerase with 2′-O-allyl-ATP; conditions: 1 mM nucleotide, approximately 100 pmol of initiator oligonucleotide, 10 μL, 30 seconds at 37° C.
T3 construct: made in house; host or cells: E. coli (T7 Express)
T3 sequence (O13833 1-405): T2 sequence (O13833 1-405)
Protocol: FIGS. 13A and 13B. […] The expected molecular weight of the expressed N-terminus His^6-tagged S. pombe poly(U) polymerase is approximately 45 kDa. […] Reactions were supplemented with increasing amounts of initiator oligonucleotide (from 20 pmol to 1000 pmol) to determine the relative conversion rates as a function of initiator oligonucleotide material as performed by concentrated N-terminus His^6-tagged S. pombe poly(U) polymerase. All reaction volumes were 10 μL, the initiator oligonucleotide was a poly-rU-15-mer labeled with a 5′-Cy5 fluorophore. Reactions were incubated at 37° C. for 30 seconds. The control reaction contained all reaction components (initiator oligonucleotide was 20 pmol) with the exception of reversible terminator nucleotide.
The primary sequence for S. pombe poly(U) polymerase (UniProtKB—O13833) was modified by adding the amino acids “[…]” to the N-terminus of the enzyme. These amino acids encode for an N-terminus His^6-tag with the appropriate linkers. Using the protocol outlined in the material and methods section, N-terminus His^6-tagged S. pombe poly(U) polymerase was expressed, purified, and concentrated to a small volume. […] Using the N-terminus His^6-tagged S. pombe poly(U) polymerase, it was determined that approximately 100 pmol of initiator oligonucleotide can be converted to the (+1) product with a conversion rate of >99% (FIG. 13B). […]

[4] = target: T4, S. pombe Cid1 poly(U) polymerase (Schizosaccharomyces pombe, UniProt O13833); assay: Uncontrolled extension with natural and modified nucleotides by S. pombe Cid1 poly(U) polymerase (gel, RNA kinetic assay); conditions: for effect of inorganic pyrophosphatase supplementation on RNA synthesis by poly(U) polymerase: 1 mM ribonucleotide, 0.1 units Yeast Inorganic Pyrophosphatase; for incorporation of natural ribonucleotides by poly(U) polymerase: 1.0 mM nucleotide, 5′-Cy5-poly rU-15-mer, 37° C., 30 minutes, gel and RNA kinetic assay
T4 construct: purchased NEB M0337
T4 sequence (O13833 1-405): T2 sequence (O13833 1-405)

[5] = target: T2, S. pombe poly(U) polymerase; assay: RNA synthesis by S. pombe poly(U) polymerase with competitive inhibitor (non-hydrolyzable) nucleotide; conditions: with UTP, 30 minutes at 37° C.
[6] = target: T5, Human polymerase μ R387K (Homo sapiens, UniProt Q9NP87, R387K); assay: dATP / rATP incorporation by polymerase μ R387K, denaturing gel electrophoresis; conditions: 0.25 mM Mn^2+ and Mg^2+; for incorporation by polymerase μ R387K: poly dT-15-mer initiator
T5 construct: His-tag (pET-28c vector); made in house; host or cells: E. coli (T7 Express)
T5 sequence (Q9NP87 whole entry R387K): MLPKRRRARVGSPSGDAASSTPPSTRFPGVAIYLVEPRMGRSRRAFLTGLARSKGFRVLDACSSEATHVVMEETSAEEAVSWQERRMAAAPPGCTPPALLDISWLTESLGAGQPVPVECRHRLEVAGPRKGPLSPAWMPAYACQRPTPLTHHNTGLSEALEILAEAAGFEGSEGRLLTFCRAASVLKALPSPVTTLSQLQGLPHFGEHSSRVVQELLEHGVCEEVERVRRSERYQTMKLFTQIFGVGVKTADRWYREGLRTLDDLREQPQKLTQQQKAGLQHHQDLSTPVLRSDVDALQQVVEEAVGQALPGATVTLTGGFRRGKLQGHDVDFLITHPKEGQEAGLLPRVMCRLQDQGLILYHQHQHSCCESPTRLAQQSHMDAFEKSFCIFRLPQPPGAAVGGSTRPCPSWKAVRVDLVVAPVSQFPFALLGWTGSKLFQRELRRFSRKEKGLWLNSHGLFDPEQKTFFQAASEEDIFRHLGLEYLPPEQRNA
Protocol: FIGS. 3A to 3C. […] Denaturing gel electrophoresis analysis of dATP incorporation (FIG. 3B) and rATP incorporation (FIG. 3C) at nucleotide concentrations of 200-50 μM and 5.0-0.62 mM for dATP and rATP, respectively. These reactions were supplemented with 0.25 mM Mn^2+ and Mg^2+. The control reaction consisted of all reaction components except nucleotide. For all reactions, the initiator oligonucleotide was a HPLC-purified poly dT-15-mer.
Human polymerase μ R387K was expressed and purified as described in the materials and methods. Because it was unknown under which reaction conditions polymerase μ R387K functioned optimally, several reaction parameters were initially evaluated. […] Thus, polymerase p R387K, a confirmed DNA/RNA-directed polymerase, is useful for controlled enzymatic RNA synthesis.

T1 sequence (P29468 whole entry): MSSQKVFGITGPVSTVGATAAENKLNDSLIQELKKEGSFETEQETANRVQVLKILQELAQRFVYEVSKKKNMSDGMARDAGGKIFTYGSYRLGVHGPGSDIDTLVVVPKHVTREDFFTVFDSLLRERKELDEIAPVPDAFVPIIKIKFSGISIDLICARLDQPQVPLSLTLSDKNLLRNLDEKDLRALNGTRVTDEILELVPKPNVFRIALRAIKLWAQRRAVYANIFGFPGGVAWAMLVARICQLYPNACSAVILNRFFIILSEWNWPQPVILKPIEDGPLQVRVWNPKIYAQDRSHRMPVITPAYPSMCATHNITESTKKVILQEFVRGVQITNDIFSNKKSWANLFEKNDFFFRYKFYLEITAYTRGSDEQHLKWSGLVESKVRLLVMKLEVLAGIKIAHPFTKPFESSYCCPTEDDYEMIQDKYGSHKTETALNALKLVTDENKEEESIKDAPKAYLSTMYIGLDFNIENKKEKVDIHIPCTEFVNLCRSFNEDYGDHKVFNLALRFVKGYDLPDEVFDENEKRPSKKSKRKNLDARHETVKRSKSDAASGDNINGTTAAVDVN

In the case of `Nc1ncnc2c1ncn2[C@@H]1O[C@H](COP(=O)(O)OP(=O)(O)OP(=O)(O)O)[C@@H](O)[C@H]1N` [2′-Amino-rATP, 2′-amino-2′-deoxyadenosine-5′-triphosphate], the “incorporation by S. cerevisiae poly(A) polymerase” value [1] is reported as “incorporates”.
With `[N-]=[N+]=N[C@@H]1[C@H](O)[C@@H](COP(=O)(O)OP(=O)(O)OP(=O)(O)O)O[C@H]1n1cnc2c(N)ncnc21` [2′-Azido-rATP, 2′-azido-2′-deoxyadenosine-5′-triphosphate] the “incorporation by S. cerevisiae poly(A) polymerase” value [1] was “incorporates”.
In the case of `Nc1ncnc2c1ncn2[C@@H]1O[C@H](COP(=O)(O)OP(=O)(O)OP(=O)(O)O)[C@@H](O)[C@H]1F` [2′-F-rATP, 2′-fluoro-2′-deoxyadenosine-5′-triphosphate], the “incorporation by S. cerevisiae poly(A) polymerase” value [1] is reported as “incorporates”.
With `CO[C@@H]1[C@H](O)[C@@H](COP(=O)(O)OP(=O)(O)OP(=O)(O)O)O[C@H]1n1cnc2c(N)ncnc21` [2′-O-Methyl rATP, 2′-O-methyladenosine-5′-triphosphate] the “incorporation by S. cerevisiae poly(A) polymerase” value [1] was “incorporates”.
With `C=CCO[C@@H]1[C@H](O)[C@@H](COP(=O)(O)OP(=O)(O)OP(=O)(O)O)O[C@H]1n1cnc2c(N)ncnc21` [2′-O-allyl-ATP] the “controlled incorporation by S. cerevisiae poly(A) polymerase” value ([1]; nucleoside triphosphate 250 μM to 4000 μM) was “positive (n+1) incorporation”, the “incorporation of reversible terminator by poly(U) polymerase” value ([2]; 1 mM, 30 minutes, initiator extended by one base) was “incorporated only a single” and the “conversion rate of initiator (+0) to extension product (+1)” value ([2]; optimized conditions, 0.5 minutes) was over 99%. The “time required to fully convert the initiator oligonucleotide (+0) to extension product (+1)” value ([2]; optimized conditions, poly-rU-15-mer 5′-Cy5) was “less than or equal to 0.5 minutes” and the “conversion rate to the (+1) product” value [3] was over 99%.
For `O=c1[nH]cc([C@@H]2O[C@H](COP(=O)(O)OP(=O)(O)OP(=O)(O)O)[C@@H](O)[C@H]2O)c(=O)[nH]1` [Pseudouridine, pseudouridine-5′-triphosphate], the “length of RNA oligonucleotides produced” value ([4]; 2 mM, 1 mM, or 0.5 mM nucleotide, 0.1 units PPi-ase, 30 minutes at 37° C.) was 30-45 nt.
In the case of `O=c1ccn([C@@H]2O[C@H](COP(=O)(O)NP(=O)(O)OP(=O)(O)O)[C@@H](O)[C@H]2O)c(=O)[nH]1` [Uridine-5′-[(α,β)-imido]triphosphate], the “concentrations having little effect on controlling the RNA synthesis reaction” value [5] is reported as “below 0.8 mM” and the “effect of higher concentrations of non-hydrolyzable ribonucleotide on rUTP incorporation” value [5] is reported as “significantly limited the total number of hydrolyzable rUTP incorporations”.
With `Nc1ncnc2c1ncn2[C@H]1C[C@H](O)[C@@H](COP(=O)(O)OP(=O)(O)OP(=O)(O)O)O1` [dATP] the “incorporation by polymerase μ R387K” value [6] was “can incorporate”.
With `Nc1ncnc2c1ncn2[C@@H]1O[C@H](COP(=O)(O)OP(=O)(O)OP(=O)(O)O)[C@@H](O)[C@H]1O` [rATP] the “nucleotide concentration needed to produce a response similar to 200 μM of dATP” value [6] was 5 mM, the “incorporation by polymerase μ R387K” value [6] was “can incorporate” and the “effect of inorganic pyrophosphatase supplementation on RNA synthesis by poly(U) polymerase” value (“effect … by poly(U) polymerase” below) ([4]; 30 minutes at 37° C.) was “greatest enhancement”.
`Nc1ccn([C@@H]2O[C@H](COP(=O)(O)OP(=O)(O)OP(=O)(O)O)[C@@H](O)[C@H]2O)c(=O)n1` [rCTP] was tested, and the “incorporation of natural ribonucleotides by poly(U) polymerase” value [4] was “has activity” and the “effect … by poly(U) polymerase” value ([4]; 30 minutes at 37° C.) was “minimally affected”.
`Nc1nc2c(ncn2[C@@H]2O[C@H](COP(=O)(O)OP(=O)(O)OP(=O)(O)O)[C@@H](O)[C@H]2O)c(=O)[nH]1` [rGTP] was tested, and the “incorporation of natural ribonucleotides by poly(U) polymerase” value [4] was “has activity” and the “effect … by poly(U) polymerase” value ([4]; 30 minutes at 37° C.) was “minimally affected”.
`O=c1ccn([C@@H]2O[C@H](COP(=O)(O)OP(=O)(O)OP(=O)(O)O)[C@@H](O)[C@H]2O)c(=O)[nH]1` [rUTP] was tested, and the “effect … by poly(U) polymerase” value ([4]; 30 minutes at 37° C.) was “greatest enhancement”.

Reference: patent US20220145295A1, “ENZYMATIC RNA SYNTHESIS” (President and Fellows of Harvard College, priority 2018, published 2022)
